Reference: US11370847B2, “Single domain antibodies directed against intracellular antigens” (Singh Biotechnology, LLC, priority 2014, dated 2022)
“And” between values parts separate entries of the source, which are not always exact repeats. Equal entries are not always repeated.

Assays:
[1] = test system: SJSA-1 xenograft; assay: SJSA-1 Bone Osteosarcoma subcutaneous xenograft model; details: for % Inh Mean / % Inh Med / Mean Abs (tumor measurement) / Median Abs (tumor measurement) / Tumor Measurements, single animals / % T/C: IP, SBT-100 5.0 mg/kg BIDx14 and/or Doxorubicin 7.0 mg/kg days 1, 8, 14
[2] = test system: EBOv (Makon); details: HFF; EBOV (Makona); 48 hours
[3] = test system: U87MG cells; assay: MTT proliferation assay, U87MG; format: cell-based, human; details: for % Inhibition (growth): U87mg cells treated for 72 hr.
[4] = SBT-100 5.0 mg/kg BID 14 days IP, Doxorubicin 7.0 mg/kg days 1, 8 and 14 IP

anti-STAT3 VHH13: anti-STAT3 single-domain antibody, SEQ ID NO:3; bacterially produced, referred to as SBT-100
mean tumor size (±S.E.) at termination [1, 4]: 1055.68±307.10 | mean tumor size (±SE) at the last day of dosing [1, 4]: 334.52±114.62 | mean tumor size compared to control ([1]; SJSA-1 xenograft): non-significant decrease in mean tumor size | tumor doubling time ([1]; control 8.22): 8.84 | % Inh Mean ([1]; study day 9 post implant): 21.06% | % Inh Med ([1]; study day 9 post implant): 11.92% | Mean Abs (tumor measurement) ([1]; study day 9 post implant): 31.31 mm^3 | Median Abs (tumor measurement) ([1]; study day 9 post implant): 19.98 mm^3 | Tumor Measurements, single animals ([1]; study day 9 post implant): 15.75 mm^3 and 19.98 mm^3 and 0.00 mm^3 and 69.47 mm^3 and 10.46 mm^3 and 79.76 mm^3 and 23.77 mm^3 | % Inh Mean ([1]; study day 13 post implant): −45.34% | % Inh Med ([1]; study day 13 post implant): −44.59% | Mean Abs (tumor measurement) ([1]; study day 13 post implant): 115.14 mm^3 | Median Abs (tumor measurement) ([1]; study day 13 post implant): 85.60 mm^3 | Tumor Measurements, single animals ([1]; study day 13 post implant): 106.64 mm^3 and 28.26 mm^3 and 0.00 mm^3 and 126.45 mm^3 and 38.25 mm^3 and 420.78 mm^3 and 85.60 mm^3 | % Inh Mean ([1]; study day 16 post implant): 12.69% | % Inh Med ([1]; study day 16 post implant): 14.60% | % T/C ([1]; study day 16 post implant): 71.23% | Mean Abs (tumor measurement) ([1]; study day 16 post implant): 151.57 mm^3 | Median Abs (tumor measurement) ([1]; study day 16 post implant): 139.83 mm^3 | Tumor Measurements, single animals ([1]; study day 16 post implant): 139.83 mm^3 and 36.05 mm^3 and 11.02 mm^3 and 200.95 mm^3 and 187.82 mm^3 and 358.90 mm^3 and 126.46 mm^3 | % Inh Mean ([1]; study day 20 post implant): 18.11% | % Inh Med ([1]; study day 20 post implant): 24.54% | % T/C ([1]; study day 20 post implant): 73.26% | Mean Abs (tumor measurement) ([1]; study day 20 post implant): 252.90 mm^3 | Median Abs (tumor measurement) ([1]; study day 20 post implant): 191.62 mm^3 | Tumor Measurements, single animals ([1]; study day 20 post implant): 191.62 mm^3 and 70.70 mm^3 and 59.97 mm^3 and 616.53 mm^3 and 180.38 mm^3 and 450.45 mm^3 and 200.68 mm^3 | % Inh Mean ([1]; study day 21 post implant): 16.23% | % Inh Med ([1]; study day 21 post implant): 35.42% | % T/C ([1]; study day 21 post implant): 76.22% | Mean Abs (tumor measurement) ([1]; study day 21 post implant): 334.52 mm^3 | Median Abs (tumor measurement) ([1]; study day 21 post implant): 198.86 mm^3 | Tumor Measurements, single animals ([1]; study day 21 post implant): 271.05 mm^3 and 115.97 mm^3 and 96.53 mm^3 and 901.18 mm^3 and 155.51 mm^3 and 602.51 mm^3 and 198.86 mm^3 | % Inh Mean ([1]; study day 23 post implant): 8.48% | % Inh Med ([1]; study day 23 post implant): 33.12% | % T/C ([1]; study day 23 post implant): 79.47% | Mean Abs (tumor measurement) ([1]; study day 23 post implant): 477.43 mm^3 | Median Abs (tumor measurement) ([1]; study day 23 post implant): 308.49 mm^3 | Tumor Measurements, single animals ([1]; study day 23 post implant): 308.49 mm^3 and 201.00 mm^3 and 185.39 mm^3 and 1,359.67 mm^3 and 197.83 mm^3 and 756.79 mm^3 and 332.80 mm^3 | % Inh Mean ([1]; study day 27 post implant): 25.23% | % Inh Med ([1]; study day 27 post implant): 37.90% | % T/C ([1]; study day 27 post implant): 69.91% | Mean Abs (tumor measurement) ([1]; study day 27 post implant): 1,055.68 mm^3 | Median Abs (tumor measurement) ([1]; study day 27 post implant): 707.34 mm^3 | Tumor Measurements, single animals ([1]; study day 27 post implant): 707.34 mm^3 and 474.71 mm^3 and 380.72 mm^3 and 2,500.29 mm^3 and 351.21 mm^3 and 1,699.89 mm^3 and 1,275.63 mm^3 | EC50 [2]: 38.36 ug/m | EC90 [2]: 66.43 µg/mL | % Inhibition (growth) ([3]; Dose 50 μg/ml): 18% | % Inhibition (growth) ([3]; Dose 100 μg/ml): 51% | % Inhibition (growth) ([3]; Dose 200 μg/ml): 62% | IC50 ([3]; U87mg, 72 hr): IC50 = 65 μg/ml | % Inhibition ([3]; U87mg, SBT-100 50 μg/ml, 72 hr): 18% | % Inhibition ([3]; U87mg, SBT-100 100 μg/ml, 72 hr): 51% | % Inhibition ([3]; U87mg, SBT-100 200 μg/ml, 72 hr): 62%
